According to patent US20250154686A1, “COMPOUND LIBRARY” (CHUGAI SEIYAKU KABUSHIKI KAISHA, priority 2021, published 2025):

Target: T1, Bcl-2 protein (Recombinant Human Bcl-2 Protein) (Homo sapiens, UniProt P10415)
T1 construct: purchased Novus Biologicals NBP2-34889
Test: AS-MS evaluation of binding of the Example 4 mixture library (1200 compounds/well) to Bcl-2, ASMS ratio (%)
Summary of the method: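 Affinity-selection MS: 1200 cpds/well, 20 nM each; hBcl-2 20 μM; 25 mM Tris pH 7.4/150 mM NaCl/0.025% Tween-20/1 mM DTT; 1 h, 23 °C, dark; P-2 size-exclusion spin, MeCN:MeOH 1:1 extraction; RP LC/MS; ratio vs no-protein STD and SEC blank.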

[1] = AS-MS, Example 4 mixture library, Bcl-2, replicate n = 1
[2] = AS-MS, Example 4 mixture library, Bcl-2, replicate n = 2
[3] = AS-MS, mixture of 1200 compounds/well, Bcl-2 protein, replicate n = 1
[4] = AS-MS, mixture of 1200 compounds/well, Bcl-2 protein, replicate n = 2
[5] = Example 4 mixture library, 1200 compounds/well, Bcl-2 protein, replicate n = 1, value belongs to the MS peak assignable to the compound
[6] = Example 4 mixture library, 1200 compounds/well, Bcl-2 protein, replicate n = 2, value belongs to the MS peak assignable to the compound

T1 sequence (P10415 whole entry): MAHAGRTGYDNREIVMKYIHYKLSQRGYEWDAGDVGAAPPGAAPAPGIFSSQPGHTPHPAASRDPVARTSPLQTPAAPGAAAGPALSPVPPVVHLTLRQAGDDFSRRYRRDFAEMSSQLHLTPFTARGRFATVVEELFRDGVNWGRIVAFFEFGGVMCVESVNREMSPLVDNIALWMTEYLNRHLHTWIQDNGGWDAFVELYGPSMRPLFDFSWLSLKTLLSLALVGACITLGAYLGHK

## CCOc1cccc(-c2ccc(C(C)N3CCN(c4ccc(C(=O)NS(=O)(=O)c5ccc(NCCSc6ccccc6)c(C(F)(F)F)c5)cc4)CC3)cc2)c1 (stereo not shown) [Compound B2R097-01, 4-[4-[1-[4-(3-Ethoxyphenyl)phenyl]ethyl]piperazin-1-yl]-N-[4-(2-phenylsulfanylethylamino)-3-(trifluoromethyl)phenyl]sulfonylbenzamide]
[1]
  ASMS ratio (%) n = 1: 6.6%
[2]
  ASMS ratio (%) n = 2: −7.8%

## CCOc1cncc(-c2ccc(C(C)N3CCN(c4ccc(C(=O)NS(=O)(=O)c5ccc(NCCSc6ccccc6)c(C(F)(F)F)c5)cc4)CC3)cc2)c1 (stereo not shown) [Compound B2R098-01, 4-[4-[1-[4-(5-Ethoxypyridin-3-yl)phenyl]ethyl]piperazin-1-yl]-N-[4-(2-phenylsulfanylethylamino)-3-(trifluoromethyl)phenyl]sulfonylbenzamide]
[1]
  ASMS ratio (%) n = 1: 9.2%
[2]
  ASMS ratio (%) n = 2: 7.5%

## CCOc1cccc(-c2ccc(C(C)N3CCN(c4ccc(C(=O)NS(=O)(=O)c5ccc(NCCSc6ccccc6)c(C(F)(F)F)c5)cc4)CC3)c(F)c2)c1 (stereo not shown) [Compound B2R099-01, 4-[4-[1-[4-(3-Ethoxyphenyl)-2-fluorophenyl]ethyl]piperazin-1-yl]-N-[4-(2-phenylsulfanylethylamino)-3-(trifluoromethyl)phenyl]sulfonylbenzamide]
[1]
  ASMS ratio (%) n = 1: −12.6%
[2]
  ASMS ratio (%) n = 2: −7.5%

## CCOc1cncc(-c2ccc(C(C)N3CCN(c4ccc(C(=O)NS(=O)(=O)c5ccc(NCCSc6ccccc6)c(C(F)(F)F)c5)cc4)CC3)c(F)c2)c1 (stereo not shown) [Compound B2R100-01, 4-[4-[1-[4-(5-Ethoxypyridin-3-yl)-2-fluorophenyl]ethyl]piperazin-1-yl]-N-[4-(2-phenylsulfanylethylamino)-3-(trifluoromethyl)phenyl]sulfonylbenzamide]
[1]
  ASMS ratio (%) n = 1: 0.6%
[2]
  ASMS ratio (%) n = 2: 10.1%

## CCOc1cccc(C#Cc2cc(C(=O)N3CCN(c4ccc(C(=O)N(C)CC56CC7CC(CC(C7)C5)C6)nn4)CC3)cc(C(F)(F)F)c2)c1 [Compound B3A019-01, N-(1-Adamantylmethyl)-6-[4-[3-[2-(3-ethoxyphenyl)ethynyl]-5-(trifluoromethyl)benzoyl]piperazin-1-yl]-N-methylpyridazine-3-carboxamide]
[3]
  ASMS ratio (%) n = 1: 2.6%
[4]
  ASMS ratio (%) n = 2: −2.3%

## CCOc1cncc(C#Cc2cc(C(=O)N3CCN(c4ccc(C(=O)N(C)CC56CC7CC(CC(C7)C5)C6)nn4)CC3)cc(C(F)(F)F)c2)c1 [Compound B3A020-01, N-(1-Adamantylmethyl)-6-[4-[3-[2-(5-ethoxypyridin-3-yl)ethynyl]-5-(trifluoromethyl)benzoyl]piperazin-1-yl]-N-methylpyridazine-3-carboxamide]
[3]
  ASMS ratio (%) n = 1: 7.5%
[4]
  ASMS ratio (%) n = 2: −3.2%

## CCOc1cncc(-c2ccc(C(=O)N3CCN(c4ccc(C(=O)N(CC)CC)nn4)CC3)cc2F)c1 [Compound B4J006-01, 6-[4-[4-(5-Ethoxypyridin-3-yl)-3-fluorobenzoyl]piperazin-1-yl]-N,N-diethylpyridazine-3-carboxamide]
[5]
  ASMS ratio (%) n = 1: 0.0%
[6]
  ASMS ratio (%) n = 2: 0.0%

## CCOc1cccc(-c2cc(OC)c(CN3CCN(c4ccc(C(=O)N(CC)CC)cc4)CC3)c(OC)c2)c1 [Compound B4J059-01, 4-[4-[[4-(3-Ethoxyphenyl)-2,6-dimethoxyphenyl]methyl]piperazin-1-yl]-N,N-diethylbenzamide]
[5]
  ASMS ratio (%) n = 1: −0.1%
[6]
  ASMS ratio (%) n = 2: −6.0%

## CCOc1cncc(-c2cc(OC)c(CN3CCN(c4ccc(C(=O)N(CC)CC)cc4)CC3)c(OC)c2)c1 [Compound B4J060-01, 4-[4-[[4-(5-Ethoxypyridin-3-yl)-2,6-dimethoxyphenyl]methyl]piperazin-1-yl]-N,N-diethylbenzamide]
[5]
  ASMS ratio (%) n = 1: 0.0%
[6]
  ASMS ratio (%) n = 2: 0.0%

## CCOc1cccc(-c2ccc(CN3CCN(c4ccc(C(=O)N(CC)CC)nn4)CC3)cc2F)c1 [Compound B4J077-01, 6-[4-[[4-(3-Ethoxyphenyl)-3-fluorophenyl]methyl]piperazin-1-yl]-N,N-diethylpyridazine-3-carboxamide]
[6]
  ASMS ratio (%) n = 2: 5.5%
